Data on one substance can be found in ChEMBL document CHEMBL5046301, “pH-Responsive Antimicrobial Peptide with Selective Killing Activity for Bacterial Abscess Therapy” (J Med Chem, 2022).

Activity calls are given as the source filed them. The calls are words filed in the database; no cut-off is given here.

In test [1] the test system is Staphylococcus aureus. Nature of the test: Antibacterial activity against Staphylococcus aureus ATCC 25923 assessed as inhibition of bacterial growth at pH 6.5 incubated for 24 hrs by NCCLS protocol based method. It is filed as functional.
Test [2] has as its system Staphylococcus aureus. Nature of the test: Antibacterial activity against methicillin-resistant Staphylococcus aureus ATCC 43300 assessed as inhibition of bacterial growth at pH 6.5 incubated for 24 hrs by NCCLS protocol based method. It counts as functional.
The subject of test [3] is Salmonella typhimurium. The test is described as follows: Antibacterial activity against Salmonella enterica subsp. enterica serovar Typhimurium C77-31 assessed as inhibition of bacterial growth at pH 6.5 incubated for 24 hrs by NCCLS protocol based method. It counts as functional.
The subject of test [4] is Pseudomonas aeruginosa. The test is described as follows: Induction of morphological changes in Pseudomonas aeruginosa ATCC 27853 assessed as disruption in cell membrane at 2 uM at pH 7.4 incubated for 1 hr by SEM analysis. It counts as functional, organism-based.
For test [5], the system named is Pseudomonas aeruginosa. Nature of the test: Antimicrobial activity against Pseudomonas aeruginosa ATCC 27853 assessed as reduction in bacterial growth at pH 6.5 in presence of MgCl2. It counts as functional.
In test [6] the test system is Cell membrane. The test is described as follows: Induction of outer membrane permeabilization in Pseudomonas aeruginosa ATCC 27853 assessed as pH responsive ability by measuring fold increase in NPN uptake at 64 uM by NPN-dye based fluorescence analysis relative to control. It is filed as subcellular.
Test [7] deals with Escherichia coli. Nature of the test: Antibacterial activity against Escherichia coli ATCC 25922 assessed as inhibition of bacterial growth at pH 6.5 incubated for 24 hrs by NCCLS protocol based method. It is filed as functional.
In test [8] the test system is Mus musculus. The test is described as follows: Antiinflammatory activity in ICR cutaneous abscess mouse model assessed as reduction in TNF-alpha expression in serum at 5 mg/kg,ip administered twice a day measured after 72 hrs by ELISA (reference value: 1.01 +/ 0.46 10^3 pg/ml). It counts as functional.
Test [9] relates to Pseudomonas aeruginosa. Nature of the test: Antipseudomonal activity against Pseudomonas aeruginosa ATCC 27853 infected in ICR cutaneous abscess mouse model assessed as fold reduction in lesion area at 5 mg/kg,ip administered twice a day measured after 72 hrs relative to control. It counts as functional.
Test [10] has as its system Staphylococcus aureus. The test is described as follows: Antibacterial activity against Staphylococcus aureus ATCC 25923 assessed as inhibition of bacterial growth at pH 7.4 incubated for 24 hrs by NCCLS protocol based method. It is filed as functional.
In test [11] the test system is Pseudomonas aeruginosa. Nature of the test: Induction of morphological changes in Pseudomonas aeruginosa ATCC 27853 assessed as plasma membrane collapse at 2 uM at pH 7.4 incubated for 1 hr by TEM analysis. It is filed as functional, organism-based.
Test [12] relates to Cell membrane. The test is described as follows: Induction of outer membrane permeabilization in Pseudomonas aeruginosa ATCC 27853 assessed as increase in NPN uptake by NPN-dye based fluorescence analysis. It counts as subcellular. The conditions noted are these: dose 1-64 µM.
Test [13] has as its system Pseudomonas aeruginosa. The test is described as follows: Induction of morphological changes in Pseudomonas aeruginosa ATCC 27853 assessed as plasma membrane collapse at 2 uM at pH 6.5 incubated for 1 hr by TEM analysis. It counts as functional, organism-based.
In test [14] the test system is Pseudomonas aeruginosa. Nature of the test: Antipseudomonal activity against Pseudomonas aeruginosa ATCC 27853 infected in ICR cutaneous abscess mouse model assessed as fold reduction in colony forming unit at 5 mg/kg,ip administered twice a day measured after 72 hrs relative to control. It counts as functional.

As a reminder, the MIC is the least concentration at which growth counts as inhibited. Take H-FLEHLIPHVIHGLVHAIHH-NH2: the MIC in [1] was more than 64 µM; in [2], 64 µM; in test [3] it was 8 µM; in test [5], 2 µM; in [7] it was 2 µM; in [10], more than 64 µM. Also, the outcome in test [4] and in test [11] was inactive. The Activity in [6] was 65.9%; in [8], 8.14 10^2pg/ml; in test [12], “Dose-Dependent Effect”. Moreover, the “fold change (FC)” value in test [9] and in test [14] was 10 each time. Besides, the outcome in test [13] was Active.
